Data: PubChem BioAssay AID1745844 (Carcinogenic Potency Database (CPDB), 2022)
Active and inactive are the calls of the source. No rule for the calls is given here.

Tested on: rodent lifetime carcinogenesis bioassay, tumor incidence TD50
Assay: chronic cancer bioassays in animals – CPDB, compiled studies (AID 1745844)

For `O=CCBr`, the carcinogen call (mouse, strain B6C3F1, females, in drinking water, site: any site (literature study), lesion: several types, types named in the paper, dosed 80 weeks, study length 80 weeks) was “negative (inactive)”, the TD50 (mouse, strain B6C3F1, females, in drinking water, site: forestomach, lesion: squamous-cell papilloma, dosed 80 weeks, study length 80 weeks) was 2520 mg/kg/day (inactive) and the TD50 (mouse, strain B6C3F1, females, in drinking water, site: liver, lesion: hemangioma, dosed 80 weeks, study length 80 weeks) was 1020 mg/kg/day (inactive). For the same compound, the carcinogen call (mouse, strain B6C3F1, females, in drinking water, site: lung, lesion: one or several types, types not named, dosed 80 weeks, study length 80 weeks) was “negative (inactive)”, the carcinogen call (mouse, strain B6C3F1, males, in drinking water, site: any site (literature study), lesion: several types, types named in the paper, dosed 78 weeks, study length 78 weeks) was “negative (inactive)” and the TD50 (mouse, strain B6C3F1, males, in drinking water, site: forestomach, lesion: squamous-cell papilloma, dosed 78 weeks, study length 78 weeks) was 1890 mg/kg/day (inactive). The carcinogen call (mouse, strain B6C3F1, males, in drinking water, site: liver, lesion: one or several types, types not named, dosed 78 weeks, study length 78 weeks) was “negative (inactive)” and the carcinogen call (mouse, strain B6C3F1, males, in drinking water, site: lung, lesion: papillary tumor, dosed 78 weeks, study length 78 weeks) was “negative (inactive)”.

For `ClCOCCCCOCCl`, the carcinogen call (mouse, strain Ha/ICR, females, i.p., site: abdomen, lesion: sarcoma, dosed 81 weeks, study length 81 weeks) was “negative (inactive)”.

`COc1cc(NC(=O)C(N=Nc2ccc(-c3ccc(N=NC(C(C)=O)C(=O)Nc4cc(OC)c(Cl)cc4OC)c(Cl)c3)cc2Cl)C(C)=O)c(OC)cc1Cl` (stereo unspecified) was tested, and the carcinogen call (mouse, strain NMRI, both sexes, in feed, site: any site (literature study), lesion: one or several types, types not named, dosed 104 weeks, study length 104 weeks) was “negative (inactive)” and the TD50 (rat, strain Sprague-Dawley, both sexes, in feed, site: any site (literature study), lesion: one or several types, types not named, dosed 104 weeks, study length 104 weeks) was 3560 mg/kg/day (inactive).

With `O=[N+]([O-])c1ccc2ncccc2c1` the carcinogen call (rat, strain Fischer 344, females, in feed, site: liver, lesion: hyperplastic nodule, dosed 104 weeks, study length 104 weeks) was “negative (inactive)” and the TD50 (rat, strain Fischer 344, males, in feed, site: liver, lesion: hyperplastic nodule, dosed 104 weeks, study length 104 weeks) was 267 mg/kg/day (inactive).

`CC(Oc1c(Cl)cccc1Cl)C1=NCCN1` (stereo unspecified) was tested, and the TD50 (rat, strain Long-Evans, females, in feed, site: any site (literature study), lesion: one or several types, types not named, dosed 52 weeks, study length 52 weeks) was 2.3 mg/kg/day (inactive) and the TD50 (rat, strain Long-Evans, males, in feed, site: any site (literature study), lesion: one or several types, types not named, dosed 52 weeks, study length 52 weeks) was 2.3 mg/kg/day (inactive).

Work on `C=CCCl` yielded a TD50 (mouse, strain B6C3F1, females, by gavage, site: any site (literature study), lesion: several types, types named in the paper, dosed 78 weeks, study length 91 weeks) of 343 mg/kg/day, a TD50 (mouse, strain B6C3F1, females, by gavage, site: liver, lesion: hepatocellular adenoma + hepatocellular carcinoma + neoplastic nodule, dosed 78 weeks, study length 91 weeks) of 2180 mg/kg/day and a TD50 (mouse, strain B6C3F1, females, by gavage, site: lung, lesion: alveolar/bronchiolar adenoma + alveolar/bronchiolar carcinoma, dosed 78 weeks, study length 91 weeks) of 1250 mg/kg/day. For the same compound, the TD50 (mouse, strain B6C3F1, females, by gavage, site: stomach, lesion: squamous-cell carcinoma + squamous-cell papilloma, dosed 78 weeks, study length 91 weeks) was 706 mg/kg/day, the TD50 (mouse, strain B6C3F1, males, by gavage, site: any site (literature study), lesion: several types, types named in the paper, dosed 67 weeks, study length 91 weeks) was 184 mg/kg/day and the TD50 (mouse, strain B6C3F1, males, by gavage, site: liver, lesion: hepatocellular adenoma + hepatocellular carcinoma + neoplastic nodule, dosed 67 weeks, study length 91 weeks) was 457 mg/kg/day. It also gave a TD50 (mouse, strain B6C3F1, males, by gavage, site: stomach, lesion: squamous-cell carcinoma + squamous-cell papilloma, dosed 67 weeks, study length 91 weeks) of 727 mg/kg/day, a TD50 (rat, strain Osborne-Mendel, females, by gavage, site: any site (literature study), lesion: several types, types named in the paper, dosed 78 weeks, study length 110 weeks) of 35.2 mg/kg/day and a TD50 (rat, strain Osborne-Mendel, males, by gavage, site: any site (literature study), lesion: several types, types named in the paper, dosed 78 weeks, study length 110 weeks) of 28.1 mg/kg/day.

`CN(C)/C=N/c1nnc(/C=C/c2ccc([N+](=O)[O-])o2)o1` was tested, and the TD50 (rat, strain Sprague-Dawley, females, in feed, site: any site (literature study), lesion: several types, types named in the paper, dosed 46 weeks, study length 66 weeks) was 20.6 mg/kg/day, the TD50 (rat, strain Sprague-Dawley, females, in feed, site: duodenum, lesion: adenocarcinoma, dosed 46 weeks, study length 66 weeks) was 336 mg/kg/day and the TD50 (rat, strain Sprague-Dawley, females, in feed, site: duodenum, lesion: adenomatous polyp, dosed 46 weeks, study length 66 weeks) was 336 mg/kg/day. The TD50 (rat, strain Sprague-Dawley, females, in feed, site: forestomach, lesion: squamous-cell papilloma, dosed 46 weeks, study length 66 weeks) was 221 mg/kg/day, the TD50 (rat, strain Sprague-Dawley, females, in feed, site: lung, lesion: alveolar-cell carcinoma, dosed 46 weeks, study length 66 weeks) was 683 mg/kg/day and the TD50 (rat, strain Sprague-Dawley, females, in feed, site: mammary gland, lesion: adenocarcinoma, dosed 46 weeks, study length 66 weeks) was 20.4 mg/kg/day. The TD50 (rat, strain Sprague-Dawley, females, in feed, site: mammary gland, lesion: several types, types named in the paper, dosed 46 weeks, study length 66 weeks) was 22.4 mg/kg/day.
